We go through 10 compounds from ChEMBL document CHEMBL1201862, “PubChem BioAssay data set” (2004).

Test systems include LOX IMVI; PC-3; EKVX; SF-539; NCI-H460; SN12C; MCF7; NCI-H226; A549; T47D; Hs-578T; MDA-MB-435; K562; ACHN; 786-0; OVCAR-8; A498; SK-OV-3; SR; DU-145.
Experiment in all cases: growth of human tumour cells (NCI), 48 h

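How tested: cells in 96-well plates exposed to compound for 48 hours at five concentrations. GI50 is the concentration that inhibits growth by half.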 The source made the active and inactive calls. Cut-off read from the data, not from the text of the source: active = GI50 up to about 1.1 µM and inactive = higher.

`CN(C)CCCNCc1cccc2ccccc12`: the GI50 in the test on LOX IMVI, in the test on PC-3, in the test on EKVX, with SF-539, in the test with NCI-H460 and in the test with SN12C was > 100 µM (inactive) in each case. Also, the GI50 in the test with MCF7, in the test on NCI-H226, in the test on A549, in the test with T47D, in the test on Hs-578T and in the test with MDA-MB-435 was > 100 µM (inactive) each time. Also, the GI50 with K562, with ACHN, in the test on 786-0, in the test with OVCAR-8, with A498 and with SK-OV-3 was > 100 µM (inactive) each time. In addition, the GI50 in the test with SR is 25.6 µM (inactive); in the test with DU-145, > 100 µM (inactive).

As for `CC(C)N(c1cc2c(cc1F)c(=O)c(C(=O)O)cn2-c1ccc(N2CCN(C)CC2)cn1)C(C)C`, the GI50 in the test with LOX IMVI, with PC-3, in the test with EKVX, in the test with SF-539, in the test on NCI-H460 and in the test on SN12C was > 100 µM (inactive) each time. Also, the GI50 in the test with MCF7, with NCI-H226, in the test on A549, in the test with T47D, in the test with Hs-578T and in the test with MDA-MB-435 was > 100 µM (inactive) each time. Further, the GI50 in the test on K562, with 786-0, with OVCAR-8, in the test with A498, in the test on SK-OV-3 and in the test with SR was > 100 µM (inactive) each time. For the same compound, in the test on DU-145, the GI50 is > 100 µM (inactive).

Consider `COc1nc2c(c(=O)n1C)N[C@@H]1[C@@H](O)[C@H](O)CO[C@@H]1N2`, for which the GI50 with LOX IMVI, in the test with PC-3, in the test on EKVX, in the test on SF-539, in the test on NCI-H460 and with SN12C was > 100 µM (inactive) in each case. In addition, the GI50 in the test with MCF7, in the test with NCI-H226, with A549, in the test on T47D, in the test on Hs-578T and with MDA-MB-435 was > 100 µM (inactive) in each case. Further, the GI50 in the test on K562, in the test with 786-0, in the test with OVCAR-8, in the test with A498, with SK-OV-3 and in the test on SR was > 100 µM (inactive) in each case. In addition, in the test with DU-145, the GI50 is > 100 µM (inactive).

`CC(NC(=O)CNP(=O)(c1ccccc1)c1ccccc1)C(=O)NC(Cc1ccccc1)C(=O)OCc1ccccc1` (stereo not drawn): the GI50 in the test on LOX IMVI was 26.7 µM (inactive); in the test with PC-3, 60.7 µM (inactive); with EKVX, 24.1 µM (inactive); in the test with SF-539, 62.2 µM (inactive); with SN12C it was 42.7 µM (inactive); with MCF7, 24.6 µM (inactive). The GI50 in the test on NCI-H226 is > 100 µM (inactive); in the test with A549, > 100 µM (inactive); in the test on T47D, > 100 µM (inactive); in the test with Hs-578T it was 27.5 µM (inactive); in the test with MDA-MB-435, 50.2 µM (inactive); in the test on K562 it was > 10 µM (inactive). Further, the GI50 was 22.2 µM (inactive) in the test on 786-0; > 100 µM (inactive) in the test on OVCAR-8; > 100 µM (inactive) in the test on A498; 21 µM (inactive) in the test with SK-OV-3; 24.9 µM (inactive) in the test on SR; > 100 µM (inactive) in the test on DU-145.

Take `COc1cc(Br)c(OC)c2c(OC)cc(C)cc12`: the GI50 with LOX IMVI is > 100 µM (inactive); in the test on PC-3, 44.6 µM (inactive); with SF-539 it was > 100 µM (inactive); with NCI-H460 it was > 100 µM (inactive); in the test on SN12C, > 100 µM (inactive); in the test on MCF7, > 100 µM (inactive). In addition, the GI50 with NCI-H226 is > 100 µM (inactive); in the test on T47D it was 54.5 µM (inactive); with Hs-578T it was 52 µM (inactive); with MDA-MB-435, 70.6 µM (inactive); in the test on K562, 67 µM (inactive); with ACHN, > 100 µM (inactive). In addition, the GI50 is 75.7 µM (inactive) in the test on 786-0; > 100 µM (inactive) in the test on OVCAR-8; > 100 µM (inactive) in the test with A498; > 100 µM (inactive) with SK-OV-3; 0.731 µM (active) in the test on SR; > 100 µM (inactive) with DU-145.

Regarding `Cc1c2c(n(Cc3ccccn3)c1C)NN=C(C#N)S2(=O)=O`, the GI50 in the test on LOX IMVI, with PC-3, in the test on EKVX, in the test with SF-539, in the test with NCI-H460 and in the test with SN12C was > 100 µM (inactive) throughout. Further, the GI50 with MCF7, in the test on NCI-H226, with A549, with T47D, in the test on Hs-578T and in the test on MDA-MB-435 was > 100 µM (inactive) each time. For the same compound, the GI50 in the test on ACHN, in the test on 786-0, in the test with OVCAR-8, in the test with A498, with SK-OV-3 and in the test with SR was > 100 µM (inactive) each time. Moreover, in the test with DU-145, the GI50 is > 100 µM (inactive).

Turning to `CN(C)C(=O)Oc1ccc(C(=S)Nc2ccccc2)cc1`, the GI50 with LOX IMVI was 60.1 µM (inactive); with PC-3, 96.4 µM (inactive); in the test on EKVX it was 45.9 µM (inactive); in the test on SF-539, > 100 µM (inactive); in the test on NCI-H460, 40.5 µM (inactive); in the test on MCF7, 76 µM (inactive). Further, the GI50 with A549 was 66.2 µM (inactive); in the test on T47D, 53.6 µM (inactive); in the test on Hs-578T, > 100 µM (inactive); with MDA-MB-435, 42.3 µM (inactive); in the test with K562 it was 24.8 µM (inactive); in the test on ACHN, > 100 µM (inactive). For the same compound, the GI50 was > 100 µM (inactive) in the test on 786-0; 25.6 µM (inactive) with OVCAR-8; > 100 µM (inactive) with A498; > 100 µM (inactive) in the test with SK-OV-3; 46.8 µM (inactive) with SR; > 100 µM (inactive) in the test with DU-145.

Regarding `O=C([O-])C1([n+]2c(-c3ccccc3)cc(-c3ccccc3)cc2-c2ccccc2)CC1`, the GI50 with LOX IMVI was 82.6 µM (inactive); in the test on PC-3 it was 80.4 µM (inactive); with EKVX it was 22.7 µM (inactive); in the test with SF-539, > 100 µM (inactive); in the test on NCI-H460, 74.5 µM (inactive); with SN12C, > 100 µM (inactive). In addition, the GI50 is 28.1 µM (inactive) in the test with MCF7; > 100 µM (inactive) with NCI-H226; > 100 µM (inactive) with A549; 16 µM (inactive) in the test with T47D; 56.8 µM (inactive) in the test with Hs-578T; 19.2 µM (inactive) in the test with MDA-MB-435. Besides, the GI50 in the test with K562 is 27.5 µM (inactive); in the test with ACHN it was > 100 µM (inactive); in the test on 786-0, 57.1 µM (inactive); in the test on OVCAR-8, > 100 µM (inactive); in the test on A498 it was > 100 µM (inactive); in the test on SR it was 76.2 µM (inactive). In the test with DU-145, the GI50 is > 100 µM (inactive).

Turning to `Nc1nc(NCCCO)cc(=O)[nH]1`, the GI50 in the test on LOX IMVI, in the test with PC-3, in the test with EKVX, with NCI-H460, in the test with SN12C and in the test with MCF7 was > 100 µM (inactive) in each case. Moreover, the GI50 with NCI-H226, in the test on A549, in the test on T47D, in the test on Hs-578T, in the test on MDA-MB-435 and in the test with K562 was > 100 µM (inactive) in each case. The GI50 in the test with ACHN, with 786-0, in the test on OVCAR-8, with A498, in the test on SK-OV-3 and in the test with SR was > 100 µM (inactive) in each case. Besides, in the test with DU-145, the GI50 was > 100 µM (inactive).

`COC(=O)Nc1nc2ccccc2[nH]1` [CARBENDAZIM]: the GI50 with LOX IMVI was 8.73 µM (inactive); in the test on PC-3 it was 15.3 µM (inactive); with EKVX it was > 52.7 µM (inactive); with SF-539, 5.2 µM (inactive); in the test with NCI-H460, 3.36 µM (inactive); in the test on SN12C it was 21.9 µM (inactive). Also, the GI50 with MCF7 is 5.07 µM (inactive); with NCI-H226, 10.4 µM (inactive); with A549, 6.97 µM (inactive); with T47D, 9.51 µM (inactive); with Hs-578T it was 12.9 µM (inactive); in the test with MDA-MB-435, 2.34 µM (inactive). The GI50 in the test with ACHN is > 56.1 µM (inactive); in the test on 786-0, 9.53 µM (inactive); in the test with OVCAR-8, 10.8 µM (inactive); with A498, > 100 µM (inactive); with SK-OV-3, 3.44 µM (inactive); with SR, 7.33 µM (inactive). The GI50 in the test on DU-145 is 5.18 µM (inactive).
